Laboratory results as given in PMC3620387, “Targeting the EGFR/PCNA Signaling Suppresses Tumor Growth of Triple-Negative Breast Cancer Cells with Cell-Penetrating PCNA Peptides” (PLoS ONE, 2013).

What was measured:
[1] = system: Iressa-resistant MDA-MB 468 (MDA-MB 468/IR) cells; test: Orthotopic Iressa-resistant MDA-MB 468 xenograft (mammary fat pad); format: in vivo, SCID mice
Description: (§1) For subcutaneous implantation, MDA-MB 468 cells (1×10^7 in 100 µL of sterile Dulbecco's phosphate-buffered saline; PBS) were inoculated into nude mice by subcutaneous injection into the flanks. Each group contained 4 mice that were inoculated with tumor cells on both flanks (n = 8). When the tumors were palpable, mice were grouped randomly into 3–4 groups with 4 mice in each group. The mice were then treated with control vehicle, control scrambled peptide, Y211F CPPP, RF6 CPPP, or D-RF6 CPPP, by intratumoral injection. For orthotopic implantation, tumor xenografts were established by injection of Iressa-resistant MDA-MB 468 (IR) cells (1×10^7 resuspended in a 1∶1 mixture of PBS and Matrigel (BD Biosciences) in a total volume of 100 µL) into the mammary fat pad on either side of each 6–8-week old female severe combined immunodeficient (SCID) mice, respectively. When the tumors were palpable, the mice bearing IR tumor xenografts were treated with control vehicle, control scrambled peptide, D-RF6 CPPP (200 nmol/mouse) by intraperitoneal injection. Tumor growth was monitored 3 times/week for five weeks by measuring tumor perpendicular diameters. Tumor volume (V) was calculated using the following formula: V = length×diameter^2×0.5.
(§2) Figure 5 The effect of CPPP on tumor growth in vivo. (A) Approximately 1×10^7 MDA-MB 468 cells were subcutaneously injected into the flanks of nude mice. When the tumors were palpable, mice were randomly divided into 4 groups and treated with PBS (Control), scrambled peptide for RF6 (Scramble), RF6 CPPP, or D-RF6 CPPP (200 nmol/mouse) by intratumoral injection. Tumor volume was measured the tumor volume at the indicated time point. (B) The weight of each of the harvested tumors from (A) was measured after treatment. (C) Approximately 1×10^7 Iressa-resistant MDA-MB 468 (MDA-MB 468/IR) cells were injected into the mammary fat pad on either side of SCID mice. When the tumors were palpable, mice were randomly divided into 3 groups and treated with PBS (Control), scrambled peptide for D-RF6 (Scramble), or D-RF6 CPPP (200 nmol/mouse) by intratumoral injection. Tumor volume was measured the tumor volume at the indicated time point. (D) The weight of each of the harvested tumors from (C) was measured after treatment. The curves and bars indicate mean ± S.D.; *, p<0.05; **, p<0.01; ***, p<0.001 by t-test. (E) Extracted tumor tissue lysates from (D), the protein levels of EGFR, p-Y211, PCNA and cleaved-caspase-3 were determined by IB.

MDA-MB 231 cells [2] = test: Apoptosis assay, Annexin V staining, flow cytometry; format: cell-based, human; conditions: 15 µM, 24 h
Description: (§3) For apoptosis assay using annexin V staining, cells treated with the CPPP for 24 h and the cells were harvested and resuspended in the binding buffer and then incubated with FITC-conjugated Annexin V and propidium iodide (PI), according to the manufacturer's protocol (BD Biosciences). The percentage of apoptotic cells were assessed by flow cytometry.

MDA-MB 468 cells [3] = test: as above; format: cell-based, human; conditions: 24 h
Description: as §3

MDA-MB 468 cells [4] = test: Subcutaneous MDA-MB 468 xenograft; format: in vivo, nude mice; conditions: 200 nmol/mouse, intratumoral injection; for tumor volume compared with control or scrambled peptides / tumor mass compared with control or scrambled peptide group: nude mice; for tumor volume compared with control or scrambled peptides: Fig. 5A, S1A; for tumor mass compared with control or scrambled peptide group: end of experiment, Fig. 5B, S1B
Description: as §1, §2
Supplementary file pone.0061362.s001.tif: Figure S1 The effect of Y211F CPPP on tumor growth in vivo. (A) Approximately 1×10^7 MDA-MB 468 cells were subcutaneously injected into the flanks of nude mice. When the tumors were palpable, mice were randomly divided into 3 groups and treated with PBS (Control), scrambled peptide for Y211 (Scramble), or Y211F CPPP (200 nmol/mouse) by intratumoral injection. Tumor volume was measured the tumor volume at the indicated time point. (B) The weight of each of the harvested tumors was measured after treatment. The curves and bars indicate mean ± S.D.; *, p<0.05; **, p<0.01; ***, p<0.001 by t-test. (TIF) Click here for additional data file.

MDA-MB 231 cells [5] = test: WST-1 cell viability assay; format: cell-based, human; conditions: 24 h
Description: (§4) Cell viability was determined by WST-1 (4-[3-(4-Iodophenyl)-2-(4-nitrophenyl) -2H-5-tetrazolio]-1,3-benzene disulfonate) assay (Roche). Cells were incubated with or without TKI or CPPP. After culturing for another 24 h, one-tenth volume of WST-1 was added at 4 h before harvest, and the absorbance was detected at 450 nm. Cell viability was normalized by the absorbance from the cells without treatment.

MDA-MB 468 cells [6] = test: WST-1 cell viability assay; format: cell-based, human; conditions: 24 h
Description: as §4

[7] = system: Iressa-resistant MDA-MB 468 (IR); test: Apoptosis assay, Annexin V staining; format: cell-based, human; conditions: 15 µM, 24 h, Fig. 3F
Description: (§5) Human triple-negative breast cancer (TNBC) cell lines (MDA-MB 468, and MDA-MB 231) were purchased from American Type Culture Collection. All cells were maintained in DMEM/F12 (1∶1) with 10% FBS. EGFR TKI-resistant TNBC cell lines: Iressa-resistant MDA-MB 468 (IR) and Tarceva-resistant MDA-MB 468 (TR) were established by treatment with gradually increasing concentrations of these drugs for over one month. These TKI-resistant clones were cultured in the presence of 1 µM TKIs. The following peptides were synthesized by MDBio, Inc: Y211F CPPP (Y211F; […]); AK10 CPPP (AK10; […]); TF10 CPPP (TF10; […]); TN8 CPPP (TN8; […]); RK8 CPPP (RK8; […]); RF6 CPPP (RF6; […]); D-RF6 CPPP (D-RF6; […]); Scrambled peptides for Y211F (Scramble; […]); Scrambled peptides for RF6 (Scramble; […]). […]
as §3
(§6) Figure 3 The cytotoxic effect of CPPP in TKI-resistant TNBC cells. […] (E–F) The P-, IR-, or TR-TNBC cells were treated with 15 µM Y211F CPPP for 24 h and the relative cell viability (E) and Annexin V-positive cells (F) were determined. […]

[8] = system: Tarceva-resistant MDA-MB 468 (TR); test: Apoptosis assay, Annexin V staining; format: cell-based, human; conditions: 15 µM, 24 h, Fig. 3F
Description: as §5, §3, §6

[9] = system: Iressa-resistant MDA-MB 468 (IR); test: WST-1 cell viability assay; format: cell-based, human; conditions: 15 µM, 24 h, Fig. 3E
Description: as §5
as §4, with “Cells were incubated with or without TKI or CPPP.” left out
as §6

[10] = system: Tarceva-resistant MDA-MB 468 (TR); test: WST-1 cell viability assay; format: cell-based, human; conditions: 15 µM, 24 h, Fig. 3E
Description: as §5
as §4, with “Cells were incubated with or without TKI or CPPP.” left out
as §6

MCF10A = test: WST-1 cell viability assay; format: cell-based; conditions: up to 50 µM, 24 h, WST-1, Fig. 1B
Description: as §4

nEGFR/PCNA = target: T1, nEGFR/PCNA (Homo sapiens, UniProt P00533); test: Immunoprecipitation/immunoblot of chromatin lysates: nEGFR binding to PCNA; format: cell-based; conditions: 30 µM, 24 h, IP anti-PCNA, IB, Fig. 2B
T1 construct: endogenous in cells; host or cells: MDA-MB 468 human TNBC cells (chromatin lysates)
Description: Cell extraction, immunoprecipitation and Western blotting were performed as described previously, [29].
The fluorescent images were observed under a confocal microscopy.

MDA-MB 468 cells [11] = conditions: 30 µM FITC-labeled peptide, 12 h, anti-EGFR staining, confocal microscopy, Fig. 2A
Description: Confocal microscopy was performed as previously described [29].
(A) MDA-MB 468 cells were treated with 30 µM FITC-labeled scrambled (FITC-Scrambled; top) or Y211F CPPP (FITC-Y211F; bottom) for 12 h. Subsequently, cells were fixed, permeabilized, and stained with anti-EGFR antibody or DAPI. The fluorescent images were observed under a confocal microscopy. The FITC-labeled peptide (green), EGFR (red), and nucleus (blue) are shown.

[12] = extracted tumor tissue lysates, IB, Fig. 5E
[13] = 15 µM Y211F CPPP combined with 1∼8 µM EGFR TKI (Tarceva or Iressa), Fig. 2C-2F
[14] = indicated concentrations, WST-1, Fig. 1B

For “YGRKKRRQRRRGRFLNFF [D-RF6 CPPP, synthetic retro-inverted D form derivative of RF6 CPPP]”, the “tumor mass compared with control or scrambled peptides” value ([1]; 200 nmol/mouse, SCID mice, harvested tumors, Fig. 5D) was “significantly reduced tumor volume and mass”, the “tumor volume compared with control or scrambled peptides” value ([1]; 200 nmol/mouse, SCID mice, intratumoral (Fig. 5C legend) or intraperitoneal (methods) injection) was “significantly reduced tumor volume and mass” and the “PCNA Y211 phosphorylation in tumor tissue” value [1, 12] was “inhibited”. The “cleaved caspase-3 in tumor tissue” value [1, 12] was “cleaved caspase-3 increased”, the “apoptosis activity (Annexin V-positive cells)” value (MDA-MB 231 cells [2]; Fig. 4G) was “enhanced the growth suppression and apoptosis activity” and the “apoptosis activity (Annexin V-positive cells)” value (MDA-MB 468 cells [3]; 15 µM, flow cytometry, Fig. 4G) was “enhanced the growth suppression and apoptosis activity”. For the same sequence, the “activity in suppressing tumor growth and reducing tumor volume, on an equimolar basis” value (MDA-MB 468 cells [4]; compared with Y211F CPPP) was “more potent than Y211F CPPP”, the “growth suppression (relative cell viability) compared with RF6 CPPP” value (MDA-MB 231 cells [5]; indicated concentrations, Fig. 4F) was “enhanced the growth suppression” and the “growth suppression (relative cell viability) compared with RF6 CPPP” value (MDA-MB 468 cells [6]; indicated concentrations, Fig. 4E) was “enhanced the growth suppression”.

YGRKKRRQRRRGRFLNFF [RF6 CPPP] was tested, and the “apoptosis (Annexin V-positive cells)” value (MDA-MB 468 cells [3]; 50 µM of each CPPP derivative, Fig. 4C) was “minimal effective peptide”, the “tumor volume compared with control or scrambled peptides” value (MDA-MB 468 cells [4]) was “significantly reduced tumor volume” and the “tumor mass compared with control or scrambled peptide group” value (MDA-MB 468 cells [4]) was “significantly smaller tumor mass”. For the same sequence, the relative cell viability (MDA-MB 468 cells [6]; 50 µM of each CPPP derivative, Fig. 4B) was “minimal effective peptide”.

For YGRKKRRQRRRGTFALRFLNFFTK [Y211F CPPP], the “Annexin V-positive cells compared with parental cells” value [7] was “more sensitive”, the “Annexin V-positive cells compared with parental cells” value [8] was “more sensitive” and the “apoptotic response (Annexin V-positive cells)” value (MDA-MB 231 cells [2]; Fig. 1C) was “observed only in MDA-MB 468 and MDA-MB 231 cells”. The “apoptotic response (Annexin V-positive cells)” value (MDA-MB 468 cells [3]; 15 µM, flow cytometry, Fig. 1C) was “observed only in MDA-MB 468 and MDA-MB 231 cells”, the “tumor volume compared with control or scrambled peptides” value (MDA-MB 468 cells [4]) was “significantly reduced tumor volume” and the “tumor mass compared with control or scrambled peptide group” value (MDA-MB 468 cells [4]) was “significantly smaller tumor mass”. The “relative cell viability, combination with EGFR TKI” value (MDA-MB 231 cells [5]; [13]) was “enhanced the effect of both TKIs”, the cancer cells killed (MDA-MB 231 cells [5]; 50 µM, WST-1, Fig. 1B) was “more than 80%” and the relative cell viability (MDA-MB 231 cells [5]; [14]) was “suppressed cell viability”. The “relative cell viability, combination with EGFR TKI” value (MDA-MB 468 cells [6]; [13]) was “enhanced the effect of both TKIs”, the cancer cells killed (MDA-MB 468 cells [6]; 50 µM, WST-1, Fig. 1B) was “more than 80%” and the relative cell viability (MDA-MB 468 cells [6]; [14]) was “suppressed cell viability”. For the same sequence, the “relative cell viability compared with parental cells” value [9] was “more sensitive”, the “relative cell viability compared with parental cells” value [10] was “more sensitive” and the relative cell viability (MCF10A) was “no effect”. The “nEGFR binding to PCNA on chromatin” value (nEGFR/PCNA) was “prevented nEGFR from binding PCNA” and the “targeting of EGFR” value (MDA-MB 468 cells [11]) was “specifically targeted EGFR”.
